Reference: patent publication US10323038B2, “Pyrazole compounds and methods of making and using same” (ABIDE THERAPEUTICS, INC., priority 2015, dated 2019)
pIC50: −log10 of the molar value.

Columns and labels:
MAGL = MAGL (Mus musculus (Mouse), UniProt O35678); assay: In vitro competitive activity-based protein profiling, MAGL (mouse); format: biochemical; conditions: for inhibition at 1 µM: read-out: MAGL % inh. 1 μM (mouse)
Method: (§1) In Vitro Competitive Activity-Based Protein Profiling.
(§2) Proteomes (mouse brain membrane fraction or cell lysates for mouse assays; human prefrontal cortex or cell membrane fractions for human assays) (50 μL, 1.0 mg/mL total protein concentration) were preincubated with varying concentrations of inhibitors at 37° C. After 30 min, FP—Rh or HT-01 (1.0 μL, 50 μM in DMSO) was added and the mixture was incubated for another 30 min at 37° C. Reactions were quenched with SDS loading buffer (15 μL-4×) and run on SDS-PAGE. Following gel imaging, serine hydrolase activity was determined by measuring fluorescent intensity of gel bands corresponding to MAGL and FAAH using ImageJ 1.43u software.

FAAH = FAAH (Mus musculus (Mouse), UniProt O08914); assay: In vitro competitive activity-based protein profiling, FAAH (mouse); format: biochemical; conditions: for inhibition at 1 µM: read-out: FAAH % inh. 1 μM (mouse)
Method: as §1, §2

FAAH, sequence (O08914 whole entry): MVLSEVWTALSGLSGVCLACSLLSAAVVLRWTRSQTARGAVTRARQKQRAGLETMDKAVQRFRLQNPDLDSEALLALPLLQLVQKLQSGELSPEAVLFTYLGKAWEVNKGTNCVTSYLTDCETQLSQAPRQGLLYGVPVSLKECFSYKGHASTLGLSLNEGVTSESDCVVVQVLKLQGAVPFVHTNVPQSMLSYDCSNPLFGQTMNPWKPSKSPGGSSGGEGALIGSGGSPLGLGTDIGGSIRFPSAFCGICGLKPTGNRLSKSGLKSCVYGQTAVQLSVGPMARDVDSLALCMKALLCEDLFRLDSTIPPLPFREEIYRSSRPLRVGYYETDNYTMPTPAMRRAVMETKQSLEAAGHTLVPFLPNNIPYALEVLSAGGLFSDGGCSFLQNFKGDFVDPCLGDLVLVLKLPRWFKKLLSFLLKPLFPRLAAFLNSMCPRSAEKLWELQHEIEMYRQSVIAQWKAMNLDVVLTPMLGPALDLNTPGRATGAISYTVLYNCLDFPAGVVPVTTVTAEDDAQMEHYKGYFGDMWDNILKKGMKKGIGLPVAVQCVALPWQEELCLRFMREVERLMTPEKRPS
MAGL, sequence (O35678 whole entry): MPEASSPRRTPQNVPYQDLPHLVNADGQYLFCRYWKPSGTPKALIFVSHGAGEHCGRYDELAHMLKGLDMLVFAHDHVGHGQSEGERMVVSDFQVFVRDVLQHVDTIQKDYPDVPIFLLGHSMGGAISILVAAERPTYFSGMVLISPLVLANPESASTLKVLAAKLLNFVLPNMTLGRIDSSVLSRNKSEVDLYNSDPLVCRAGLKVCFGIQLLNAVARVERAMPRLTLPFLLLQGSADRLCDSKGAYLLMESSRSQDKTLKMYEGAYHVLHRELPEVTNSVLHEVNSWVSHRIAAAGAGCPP

| Compound | pIC50 (MAGL) | inhibition at 1 µM (MAGL) [%] | pIC50 (FAAH) | inhibition at 1 µM (FAAH) [%] |
| --- | --- | --- | --- | --- |
| CC(=O)N(C)c1cnn(C(=O)N2CCC3(CCN(Cc4cc(Cl)ccc4Cl)C3)C2)c1 (racemic) [Example 175, N-(1-(7-(2,5-dichlorobenzyl)-2,7-diazaspiro[4.4]nonane-2-carbonyl)-1H-pyrazol-4-yl)-N-methylacetamide] | 6.00 to 7.00 | ≥ 75 | ≥ 7.00 | ≥ 75 |
| CC(=O)N(C)c1cnn(C(=O)N2CCC3(CCN(Cc4cccc(C(F)(F)F)c4)C3)C2)c1 (single isomer, unassigned) [Example 65, N-methyl-N-(1-(7-(3-(trifluoromethyl)benzyl)-2,7-diazaspiro[4.4]nonane-2-carbonyl)-1H-pyrazol-4-yl)acetamide] | 6.00 to 7.00 | ≥ 75 | ≥ 7.00 | ≥ 75 |
| CC(=O)N(C)c1cnn(C(=O)N2CCC3(CCN(Cc4cccc(C(F)(F)F)c4)C3)C2)c1 (single isomer, unassigned) [Example 66, N-methyl-N-(1-(7-(3-(trifluoromethyl)benzyl)-2,7-diazaspiro[4.4]nonane-2-carbonyl)-1H-pyrazol-4-yl)acetamide] | 6.00 to 7.00 |  | ≥ 7.00 |  |
| CC(=O)N(C)c1cnn(C(=O)N2CCC3(CCN(Cc4cc(Cl)ccc4Cl)C3)C2)c1 (single isomer, unassigned) [Example 176, N-(1-(7-(2,5-dichlorobenzyl)-2,7-diazaspiro[4.4]nonane-2-carbonyl)-1H-pyrazol-4-yl)-N-methylacetamide] | ≥ 7.00 | ≥ 75 | ≥ 7.00 | ≥ 75 |
| CC(=O)N(C)c1cnn(C(=O)N2CCC3(CCN(Cc4cc(Cl)ccc4Cl)C3)C2)c1 (single isomer, unassigned) [Example 177, N-(1-(7-(2,5-dichlorobenzyl)-2,7-diazaspiro[4.4]nonane-2-carbonyl)-1H-pyrazol-4-yl)-N-methylacetamide] | ≥ 7.00 |  | ≥ 7.00 |  |
| CC(=O)N(C)c1cnn(C(=O)N2CCC3(CCN(Cc4ccc(Cl)c(Cl)c4)C3)C2)c1 (centres unmarked) [Example 1, N-(1-(7-(3,4-dichlorobenzyl)-2,7-diazaspiro[4.4]nonane-2-carbonyl)-1H-pyrazol-4-yl)-N-methylacetamide] | 6.00 to 7.00 | ≥ 75 | ≥ 7.00 | ≥ 75 |
| CC(=O)N(C)c1cnn(C(=O)N2CCC3(CCN(Cc4ccc(C(F)(F)F)cc4)C3)C2)c1 (centres unmarked) [Example 2, N-methyl-N-(1-(7-(4-(trifluoromethyl)benzyl)-2,7-diazaspiro[4.4]nonane-2-carbonyl)-1H-pyrazol-4-yl)acetamide] | 6.00 to 7.00 | ≥ 75 | 6.00 to 7.00 | ≥ 75 |
| CC(=O)N(C)c1cnn(C(=O)N2CCC3(CCN(Cc4ccc(N5CCOCC5)cc4Cl)C3)C2)c1 (centres unmarked) [Example 4, N-(1-(7-(2-chloro-4-morpholinobenzyl)-2,7-diazaspiro[4.4]nonane-2-carbonyl)-1H-pyrazol-4-yl)-N-methylacetamide] | 6.00 to 7.00 | ≥ 75 | ≥ 7.00 | ≥ 75 |
| CS(=O)(=O)Nc1cnn(C(=O)N2CC3CN(Cc4ccccc4Cl)CC3C2)c1 (centres unmarked) [Example 6, N-(1-(5-(2-chlorobenzyl)octahydropyrrolo[3,4-c]pyrrole-2-carbonyl)-1H-pyrazol-4-yl)methanesulfonamide] | 5.00 to 6.00 | 0 to 25 | 6.00 to 7.00 | ≥ 75 |
| CS(=O)(=O)Nc1cnn(C(=O)N2CC3CN(Cc4cccc(Cl)c4)CC3C2)c1 (centres unmarked) [Example 7, N-(1-(5-(3-chlorobenzyl)octahydropyrrolo[3,4-c]pyrrole-2-carbonyl)-1H-pyrazol-4-yl)methanesulfonamide] | 5.00 to 6.00 | 0 to 25 | 6.00 to 7.00 | ≥ 75 |
| CS(=O)(=O)Nc1cnn(C(=O)N2CC3CN(Cc4ccc(Cl)cc4)CC3C2)c1 (centres unmarked) [Example 8, N-(1-(5-(4-chlorobenzyl)octahydropyrrolo[3,4-c]pyrrole-2-carbonyl)-1H-pyrazol-4-yl)methanesulfonamide] | 5.00 to 6.00 | 0 to 25 | 6.00 to 7.00 | ≥ 75 |
| CC(=O)N(C)c1cnn(C(=O)N2CC3CN(Cc4cccc(Cl)c4)CC3C2)c1 (centres unmarked) [Example 10, N-(1-(5-(3-chlorobenzyl)octahydropyrrolo[3,4-c]pyrrole-2-carbonyl)-1H-pyrazol-4-yl)-N-methylacetamide] | 6.00 to 7.00 | ≥ 75 | 6.00 to 7.00 | ≥ 75 |
| CC(=O)N(C)c1cnn(C(=O)N2CC3CN(Cc4ccc(Cl)c(Cl)c4)CC3C2)c1 (centres unmarked) [Example 12, N-(1-(5-(3,4-dichlorobenzyl)octahydropyrrolo[3,4-c]pyrrole-2-carbonyl)-1H-pyrazol-4-yl)-N-methylacetamide] | 6.00 to 7.00 | ≥ 75 | ≥ 7.00 | ≥ 75 |
| CC(=O)N(C)c1cnn(C(=O)N2CC3CN(Cc4ccc(N5CCCC5)cc4)CC3C2)c1 (centres unmarked) [Example 13, N-methyl-N-(1-(5-(4-(pyrrolidin-1-yl)benzyl)octahydropyrrolo[3,4-c]pyrrole-2-carbonyl)-1H-pyrazol-4-yl)acetamide] | 6.00 to 7.00 | ≥ 75 | 6.00 to 7.00 | ≥ 75 |
| CC(=O)N(C)c1cnn(C(=O)N2CC3CN(Cc4ccc(C(F)(F)F)cc4)CC3C2)c1 (centres unmarked) [Example 14, N-methyl-N-(1-(5-(4-(trifluoromethyl)benzyl)octahydropyrrolo[3,4-c]pyrrole-2-carbonyl)-1H-pyrazol-4-yl)acetamide] | ≥ 7.00 | ≥ 75 | ≥ 7.00 | ≥ 75 |
| CC(=O)N(C)c1cnn(C(=O)N2CC3CN(Cc4ccc(N5CCOCC5)cc4Cl)CC3C2)c1 (centres unmarked) [Example 16, N-(1-(5-(2-chloro-4-morpholinobenzyl)octahydropyrrolo[3,4-c]pyrrole-2-carbonyl)-1H-pyrazol-4-yl)-N-methylacetamide] | ≥ 7.00 | ≥ 75 | ≥ 7.00 | ≥ 75 |
| CC(=O)N(C)c1cnn(C(=O)N2CC3CN(Cc4ccc(N5CCOCC5)cc4C)CC3C2)c1 (centres unmarked) [Example 17, N-methyl-N-(1-(5-(2-methyl-4-morpholinobenzyl)octahydropyrrolo[3,4-c]pyrrole-2-carbonyl)-1H-pyrazol-4-yl)acetamide] |  | ≥ 75 |  | ≥ 75 |
| CC(=O)N(C)c1cnn(C(=O)N2CC3(CCN(Cc4ccc(Cl)c(Cl)c4)CC3)C2)c1 [Example 18, N-(1-(7-(3,4-dichlorobenzyl)-2,7-diazaspiro[3.5]nonane-2-carbonyl)-1H-pyrazol-4-yl)-N-methylacetamide] |  | 25 to 50 |  | ≥ 75 |
| CC(=O)N(C)c1cnn(C(=O)N2CC3(CCN(Cc4ccc(N5CCCC5)cc4)CC3)C2)c1 [Example 19, N-methyl-N-(1-(7-(4-(pyrrolidin-1-yl)benzyl)-2,7-diazaspiro[3.5]nonane-2-carbonyl)-1H-pyrazol-4-yl)acetamide] |  | 50 to 75 |  | 25 to 50 |
| CC(=O)N(C)c1cnn(C(=O)N2CC3(CCN(Cc4ccc(C(F)(F)F)cc4)CC3)C2)c1 [Example 20, N-methyl-N-(1-(7-(4-(trifluoromethyl)benzyl)-2,7-diazaspiro[3.5]nonane-2-carbonyl)-1H-pyrazol-4-yl)acetamide] |  | 25 to 50 |  | 50 to 75 |
| CC(=O)N(C)c1cnn(C(=O)N2CC3(CCN(Cc4ccc(N5CCOCC5)cc4Cl)CC3)C2)c1 [Example 22, N-(1-(7-(2-chloro-4-morpholinobenzyl)-2,7-diazaspiro[3.5]nonane-2-carbonyl)-1H-pyrazol-4-yl)-N-methylacetamide] | 5.00 to 6.00 | 25 to 50 | 6.00 to 7.00 | ≥ 75 |
| CC(=O)N(C)c1cnn(C(=O)N2CC3(CCN(Cc4ccc(N5CCOCC5)cc4C)CC3)C2)c1 [Example 23, N-methyl-N-(1-(7-(2-methyl-4-morpholinobenzyl)-2,7-diazaspiro[3.5]nonane-2-carbonyl)-1H-pyrazol-4-yl)acetamide] |  | 25 to 50 |  | 25 to 50 |
| CC(=O)N(C)c1cnn(C(=O)N2CCC3(CC2)CN(Cc2ccc(Cl)c(Cl)c2)C3)c1 [Example 24, N-(1-(2-(3,4-dichlorobenzyl)-2,7-diazaspiro[3.5]nonane-7-carbonyl)-1H-pyrazol-4-yl)-N-methylacetamide] | ≥ 7.00 | ≥ 75 | ≥ 7.00 | ≥ 75 |
| CC(=O)N(C)c1cnn(C(=O)N2CCC3(CC2)CN(Cc2ccc(N4CCCC4)cc2)C3)c1 [Example 25, N-methyl-N-(1-(2-(4-(pyrrolidin-1-yl)benzyl)-2,7-diazaspiro[3.5]nonane-7-carbonyl)-1H-pyrazol-4-yl)acetamide] |  | ≥ 75 |  | 50 to 75 |
| CC(=O)N(C)c1cnn(C(=O)N2CCC3(CC2)CN(Cc2ccc(C(F)(F)F)cc2)C3)c1 [Example 26, N-methyl-N-(1-(2-(4-(trifluoromethyl)benzyl)-2,7-diazaspiro[3.5]nonane-7-carbonyl)-1H-pyrazol-4-yl)acetamide] | ≥ 7.00 | ≥ 75 | 6.00 to 7.00 | ≥ 75 |
| CC(=O)N(C)c1cnn(C(=O)N2CCC3(CC2)CN(Cc2ccc(N4CCOCC4)cc2)C3)c1 [Example 27, N-methyl-N-(1-(2-(4-morpholinobenzyl)-2,7-diazaspiro[3.5]nonane-7-carbonyl)-1H-pyrazol-4-yl)acetamide] |  | ≥ 75 |  | 0 to 25 |
